Results taken from ChEMBL document CHEMBL2046396, “Discovery and modification of sulfur-containing heterocyclic pyrazoline derivatives as potential novel class of β-ketoacyl-acyl carrier protein synthase III (FabH) inhibitors” (Bioorg Med Chem Lett, 2012).
In brackets after ≈: the same amount, converted by molar mass.

Legend:
[1] = tested on: Bacillus subtilis; experiment: Antibacterial activity against Bacillus subtilis ATCC 530 after 24 hrs by MTT assay; format: functional; settings: ATCC 530, 24 h
[2] = tested on: Pseudomonas aeruginosa; experiment: Antibacterial activity against Pseudomonas aeruginosa ATCC 27853 after 24 hrs by MTT assay; format: functional; settings: ATCC 27853, 24 h
[3] = tested on: Staphylococcus aureus; experiment: Antibacterial activity against Staphylococcus aureus ATCC 6538 after 24 hrs by MTT assay; format: functional; settings: ATCC 6538, 24 h
[4] = tested on: Escherichia coli; experiment: Antibacterial activity against Escherichia coli ATCC 25922 after 24 hrs by MTT assay; format: functional; settings: ATCC 25922, 24 h
[5] = Inhibition of Escherichia coli FabH expressed in Escherichia coli BL21(DE3) using holo-ACP as substrate after 25 mins
[6] = Toxicity in RBC assessed as concentration required for 30% hemolysis; format: cell-based; settings: erythrocyte

MIC [1] | MIC [2] | MIC [3] | MIC [4] | IC50 [5] | Compound | HC30 [6]
12.5 mg/L (≈ 37.3 µM) | 12.5 mg/L (≈ 37.3 µM) | 6.25 mg/L (≈ 18.6 µM) | 12.5 mg/L (≈ 37.3 µM) |  | Cc1ccc(C2=NN(C3=NC(=O)CS3)C(c3ccccc3)C2)cc1 (stereo not given) | 
50 mg/L (≈ 123 µM) | 12.5 mg/L (≈ 30.8 µM) | 12.5 mg/L (≈ 30.8 µM) | 12.5 mg/L (≈ 30.8 µM) |  | Fc1ccc(C2=NN(c3nc(-c4ccccc4)cs3)C(c3cccs3)C2)cc1 (stereo not given) | 
6.25 mg/L (≈ 13.4 µM) | 12.5 mg/L (≈ 26.8 µM) | 12.5 mg/L (≈ 26.8 µM) | 6.25 mg/L (≈ 13.4 µM) | 23.3 µM | Brc1ccc(C2=NN(c3nc(-c4ccccc4)cs3)C(c3cccs3)C2)cc1 (stereo not given) | > 10 mg/mL
12.5 mg/L (≈ 27.4 µM) | 12.5 mg/L (≈ 27.4 µM) | > 50 mg/L | 50 mg/L (≈ 110 µM) | > 150 µM | Clc1ccc(C2=NN(c3nc(-c4ccccc4)cs3)C(c3cccs3)C2)cc1Cl (stereo not given) | > 10 mg/mL
3.13 mg/L (≈ 7.79 µM) | 1.56 mg/L (≈ 3.88 µM) | 1.56 mg/L (≈ 3.88 µM) | 3.13 mg/L (≈ 7.79 µM) | 10.9 µM | Cc1ccc(C2=NN(c3nc(-c4ccccc4)cs3)C(c3cccs3)C2)cc1 (stereo not given) | > 10 mg/mL
12.5 mg/L (≈ 29.9 µM) | 50 mg/L (≈ 120 µM) | 6.25 mg/L (≈ 15 µM) | 6.25 mg/L (≈ 15 µM) | 30.6 µM | COc1ccc(C2=NN(c3nc(-c4ccccc4)cs3)C(c3cccs3)C2)cc1 (stereo not given) | > 10 mg/mL
12.5 mg/L (≈ 28.7 µM) | 12.5 mg/L (≈ 28.7 µM) | 12.5 mg/L (≈ 28.7 µM) | 12.5 mg/L (≈ 28.7 µM) |  | COc1ccc(-c2csc(N3N=C(c4ccc(F)cc4)CC3c3cccs3)n2)cc1 (stereo not given) | 
12.5 mg/L (≈ 25.2 µM) | 12.5 mg/L (≈ 25.2 µM) | 12.5 mg/L (≈ 25.2 µM) | 6.25 mg/L (≈ 12.6 µM) |  | COc1ccc(-c2csc(N3N=C(c4ccc(Br)cc4)CC3c3cccs3)n2)cc1 (stereo not given) | 
12.5 mg/L (≈ 25.7 µM) | 12.5 mg/L (≈ 25.7 µM) | 50 mg/L (≈ 103 µM) | 50 mg/L (≈ 103 µM) | > 150 µM | COc1ccc(-c2csc(N3N=C(c4ccc(Cl)c(Cl)c4)CC3c3cccs3)n2)cc1 (stereo not given) | > 10 mg/mL
6.25 mg/L (≈ 14.5 µM) | 12.5 mg/L (≈ 29 µM) | 12.5 mg/L (≈ 29 µM) | 6.25 mg/L (≈ 14.5 µM) |  | COc1ccc(-c2csc(N3N=C(c4ccc(C)cc4)CC3c3cccs3)n2)cc1 (stereo not given) | 
50 mg/L (≈ 112 µM) | 12.5 mg/L (≈ 27.9 µM) | 12.5 mg/L (≈ 27.9 µM) | 12.5 mg/L (≈ 27.9 µM) |  | COc1ccc(C2=NN(c3nc(-c4ccc(OC)cc4)cs3)C(c3cccs3)C2)cc1 (stereo not given) | 
50 mg/L (≈ 128 µM) | 12.5 mg/L (≈ 32.1 µM) | 6.25 mg/L (≈ 16 µM) | 6.25 mg/L (≈ 16 µM) | 22.3 µM | Fc1ccc(C2=NN(c3nc(-c4ccccc4)cs3)C(c3ccco3)C2)cc1 (stereo not given) | > 10 mg/mL
3.13 mg/L (≈ 6.95 µM) | 3.13 mg/L (≈ 6.95 µM) | 1.56 mg/L (≈ 3.46 µM) | 3.13 mg/L (≈ 6.95 µM) | 9.7 µM | Brc1ccc(C2=NN(c3nc(-c4ccccc4)cs3)C(c3ccco3)C2)cc1 (stereo not given) | > 10 mg/mL
12.5 mg/L (≈ 28.4 µM) | > 50 mg/L | 12.5 mg/L (≈ 28.4 µM) | 12.5 mg/L (≈ 28.4 µM) |  | Clc1ccc(C2=NN(c3nc(-c4ccccc4)cs3)C(c3ccco3)C2)cc1Cl (stereo not given) | 
3.13 mg/L (≈ 8.12 µM) | 1.56 mg/L (≈ 4.05 µM) | 1.56 mg/L (≈ 4.05 µM) | 1.56 mg/L (≈ 4.05 µM) | 4.6 µM | Cc1ccc(C2=NN(c3nc(-c4ccccc4)cs3)C(c3ccco3)C2)cc1 (stereo not given) | > 10 mg/mL
12.5 mg/L (≈ 29.8 µM) | 6.25 mg/L (≈ 14.9 µM) | 12.5 mg/L (≈ 29.8 µM) | 6.25 mg/L (≈ 14.9 µM) |  | COc1ccc(-c2csc(N3N=C(c4ccc(F)cc4)CC3c3ccco3)n2)cc1 (stereo not given) | 
6.25 mg/L (≈ 13 µM) | 6.25 mg/L (≈ 13 µM) | 12.5 mg/L (≈ 26 µM) | 6.25 mg/L (≈ 13 µM) | 19.7 µM | COc1ccc(-c2csc(N3N=C(c4ccc(Br)cc4)CC3c3ccco3)n2)cc1 (stereo not given) | > 10 mg/mL
> 50 mg/L | > 50 mg/L | 12.5 mg/L (≈ 26.6 µM) | 50 mg/L (≈ 106 µM) |  | COc1ccc(-c2csc(N3N=C(c4ccc(Cl)c(Cl)c4)CC3c3ccco3)n2)cc1 (stereo not given) | 
6.25 mg/L (≈ 15 µM) | 3.13 mg/L (≈ 7.53 µM) | 6.25 mg/L (≈ 15 µM) | 3.13 mg/L (≈ 7.53 µM) | 15.7 µM | COc1ccc(-c2csc(N3N=C(c4ccc(C)cc4)CC3c3ccco3)n2)cc1 (stereo not given) | > 10 mg/mL
12.5 mg/L (≈ 36.2 µM) | > 50 mg/L | 12.5 mg/L (≈ 36.2 µM) | 6.25 mg/L (≈ 18.1 µM) |  | O=C1CSC(N2N=C(c3ccc(F)cc3)CC2c2cccs2)=N1 (stereo not given) | 
12.5 mg/L (≈ 30.8 µM) | 6.25 mg/L (≈ 15.4 µM) | 12.5 mg/L (≈ 30.8 µM) | 6.25 mg/L (≈ 15.4 µM) | 27.1 µM | O=C1CSC(N2N=C(c3ccc(Br)cc3)CC2c2cccs2)=N1 (stereo not given) | > 10 mg/mL
> 50 mg/L | 12.5 mg/L (≈ 31.5 µM) | 12.5 mg/L (≈ 31.5 µM) | 12.5 mg/L (≈ 31.5 µM) |  | O=C1CSC(N2N=C(c3ccc(Cl)c(Cl)c3)CC2c2cccs2)=N1 (stereo not given) | 
6.25 mg/L (≈ 18.3 µM) | 6.25 mg/L (≈ 18.3 µM) | 3.13 mg/L (≈ 9.17 µM) | 6.25 mg/L (≈ 18.3 µM) | 13.6 µM | Cc1ccc(C2=NN(C3=NC(=O)CS3)C(c3cccs3)C2)cc1 (stereo not given) | > 10 mg/mL
50 mg/L (≈ 140 µM) | > 50 mg/L | 12.5 mg/L (≈ 35 µM) | 12.5 mg/L (≈ 35 µM) | 89.9 µM | COc1ccc(C2=NN(C3=NC(=O)CS3)C(c3cccs3)C2)cc1 (stereo not given) | > 10 mg/mL
3.13 mg/L (≈ 9.5 µM) | 6.25 mg/L (≈ 19 µM) | 3.13 mg/L (≈ 9.5 µM) | 3.13 mg/L (≈ 9.5 µM) | 8.4 µM | O=C1CSC(N2N=C(c3ccc(F)cc3)CC2c2ccco2)=N1 (stereo not given) | > 10 mg/mL
12.5 mg/L (≈ 32 µM) | 12.5 mg/L (≈ 32 µM) | 6.25 mg/L (≈ 16 µM) | 6.25 mg/L (≈ 16 µM) |  | O=C1CSC(N2N=C(c3ccc(Br)cc3)CC2c2ccco2)=N1 (stereo not given) | 
12.5 mg/L (≈ 32.9 µM) | 12.5 mg/L (≈ 32.9 µM) | 6.25 mg/L (≈ 16.4 µM) | 12.5 mg/L (≈ 32.9 µM) |  | O=C1CSC(N2N=C(c3ccc(Cl)c(Cl)c3)CC2c2ccco2)=N1 (stereo not given) | 
3.13 mg/L (≈ 9.62 µM) | 6.25 mg/L (≈ 19.2 µM) | 6.25 mg/L (≈ 19.2 µM) | 3.13 mg/L (≈ 9.62 µM) | 18.4 µM | Cc1ccc(C2=NN(C3=NC(=O)CS3)C(c3ccco3)C2)cc1 (stereo not given) | > 10 mg/mL
12.5 mg/L (≈ 31.6 µM) | 12.5 mg/L (≈ 31.6 µM) | 12.5 mg/L (≈ 31.6 µM) | 6.25 mg/L (≈ 15.8 µM) |  | Cc1ccc(C2=NN(c3nc(-c4ccccc4)cs3)C(c3ccccc3)C2)cc1 (stereo not given) | 
3.13 mg/L (≈ 6.47 µM) | 1.56 mg/L (≈ 3.23 µM) | 3.13 mg/L (≈ 6.47 µM) | 1.56 mg/L (≈ 3.23 µM) |  | NC[C@H]1O[C@H](O[C@H]2[C@H](O)[C@@H](O[C@H]3O[C@H](CO)[C@@H](O)[C@H](N)[C@H]3O)[C@H](N)C[C@@H]2N)[C@H](N)[C@@H](O)[C@@H]1O [BEKANAMYCIN] | 
